Assay results taken from ChEMBL document CHEMBL1130768, “DNA cleavage by 7-methylbenzopentathiepin: a simple analog of the antitumor antibiotic varacin” (1998).
Converted amounts (≈) assume the structure as drawn. The source made the active and inactive calls. The rule behind the calls is not given here.

What was measured:
[1] = system: HCT-116; test: Cytotoxicity against a human colon cancer cell line (HCT116 cells) was reported; assay type: functional
[2] = system: Candida albicans; test: Antifungal activity against candida albicans was determined; Active; assay type: functional, organism-based

COc1cc(CCN)c2c(c1OC)SSSSS2 [VARACIN]
IC90 [1]: 0.05 µg/mL (≈ 0.147 µM)
Activity [2]: Active
